# Tested on: persistent retinal vascular leakage
# Test: DL-AAA model of persistent retinal vascular leakage, fluorescein angiography
# Type: in vivo, DB rabbits
# Settings: 2-mg injection
substance,measurement,value
"Eylea® (aflibercept): commercial aflibercept product, macromolecular ligand for VEGF, used to validate the model",duration of effect on leakage,approximately two
